In general, EC50 refers to the concentration that produces a half-maximal response. Read a low EC50 as higher potency in that assay.

A value given as a limit tells only on which side of the number the result lay.

These results are taken from patent US8697877B2, “Oxyindole derivatives with motilin receptor agonistic activity” (RaQualia Pharma Inc., priority 2009, dated 2014).

The target in one test is T1, human motilin receptor (GPR38) (Homo sapiens, UniProt O43193).
T1 construct: expressed in transfected cells; host or cells: CHO-K1
T1 sequence (O43193 whole entry): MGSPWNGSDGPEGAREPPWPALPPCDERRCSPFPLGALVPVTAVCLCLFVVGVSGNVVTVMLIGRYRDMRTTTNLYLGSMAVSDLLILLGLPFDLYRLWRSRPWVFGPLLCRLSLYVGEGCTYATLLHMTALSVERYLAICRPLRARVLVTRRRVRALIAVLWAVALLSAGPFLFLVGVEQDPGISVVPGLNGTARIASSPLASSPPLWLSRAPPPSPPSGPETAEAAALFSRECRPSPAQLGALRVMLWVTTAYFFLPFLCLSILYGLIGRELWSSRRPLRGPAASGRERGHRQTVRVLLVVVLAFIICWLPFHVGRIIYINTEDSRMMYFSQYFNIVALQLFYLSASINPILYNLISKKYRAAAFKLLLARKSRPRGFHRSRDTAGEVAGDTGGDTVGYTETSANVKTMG
The test can be described thus: GPR38 (Motilin Receptor) Functional Assay, NFAT-beta-lactamase reporter in CHO-K1 cells. The test is classed as cell-based.
Settings: not given
On the procedure: The potencies and efficacies of the compounds of this invention for GPR38 can be determined by reporter assay performed on the human cloned receptor as described herein.
GPR38 (Motilin Receptor) Functional Assay
A CHO-K1 cell line stably transfected NFAT-beta-lactamase reporter and human motilin receptor gene was used. The cells were cultured in culture medium (Dulbecco's modified eagle medium containing 10% fetal bovine serum, 1 mM sodium pyruvate, 0.1 mM MEM nonessential amino acids, 25 mM HEPES buffer, 50 units/mL penicillin, 50 microg/mL streptomycin, 100 microg/mL zeocin, and 500 microg/mL G418). The cells were harvested with 0.05% trypsin EDTA and centrifuged. The cell pellets were resuspended in the culture medium and plated into a black/clear bottom 384-well plate at a density of 8000 cells per well, then incubated at 37° C. with 5% CO2 for over night (about 20 hours). On the day of assay, the culture medium was aspirated and 20 microL of assay medium (Dulbecco's modified eagle medium containing 100 units/mL penicillin and 100 microg/mL streptomycin) was added to each well, then the cell plates were placed in incubator at 37° C. with 5% CO2 for 1.5 hours. Compounds were prepared in 100% DMSO and these were diluted to 5× of final concentration with assay buffer (Hanks balanced salt solution, 20 mM HEPES, and 0.1% BSA), then dispensed into 384-well plate (5 microL/well). After incubation at 37° C. with 5% CO2 for 4.5 hours, CCF4-AM loading solution (Invitrogen Corp.) was added to each well. After incubation for 2 hours at room temperature, fluorescence intensities were measured by using plate reader FDSS (Hamamatsu Photonics K. K.) with excitation 400 nm, emission 465 nm/540 nm. Agonistic activity (EC50) was calculated from the sigmoidal dose-response curve using GraphPad Prism software (GraphPad Software, Inc.).
`CC1(C)C(=O)N(C2CCN(C(=O)[C@H](CCc3ccccc3)NC(=O)[C@@H]3CCCNC3)CC2)c2ccccc21` [Example 1, (R)—N—((S)-1-(4-(3,3-dimethyl-2-oxoindolin-1-yl)piperidin-1-yl)-1-oxo-4-phenylbutan-2-yl)piperidine-3-carboxamide] gave an EC50 of at most 10 nM. Same read-out and setting: under `CC1(C)C(=O)N(C2CCN(C(=O)[C@H](CCc3ccccc3)NC(=O)[C@@H]3CCCCN3)CC2)c2ccccc21` [Example 2, (S)-N-((S)-1-(4-(3,3-dimethyl-2-oxoindolin-1-yl)piperidin-1-yl)-1-oxo-4-phenylbutan-2-yl)piperidine-2-carboxamide] stands at most 10 nM. `CC1(C)C(=O)N(C2CCN(C(=O)[C@H](CCc3ccccc3)NC(=O)[C@@H](N)C(C)(C)C)CC2)c2ccccc21` [Example 3, (S)-2-amino-N-((S)-1-(4-(3,3-dimethyl-2-oxoindolin-1-yl)piperidin-1-yl)-1-oxo-4-phenylbutan-2-yl)-3,3-dimethylbutanamide] showed an EC50 of at most 10 nM. Compound `CC1(C)C(=O)N(C2CCN(C(=O)[C@H](CCc3ccccc3)NC(=O)CC3(N)CCC3)CC2)c2ccccc21` [Example 6, (S)-2-(1-aminocyclobutyl)-N-(1-(4-(3,3-dimethyl-2-oxoindolin-1-yl)piperidin-1-yl)-1-oxo-4-phenylbutan-2-yl)acetamide] gave an EC50 of at most 10 nM. Same read-out and setting: under `CC1(C)C(=O)N(C2CCN(C(=O)[C@H](CCc3ccccc3)NC(=O)C3(CN)CC3)CC2)c2ccccc21` [Example 7, (S)-1-(aminomethyl)-N-(1-(4-(3,3-dimethyl-2-oxoindolin-1-yl)piperidin-1-yl)-1-oxo-4-phenylbutan-2-yl)cyclopropanecarboxamide] stands at most 10 nM; under `CC1(C)C(=O)N(C2CCN(C(=O)[C@H](CCc3ccccc3)NC(=O)C3CNC3)CC2)c2ccccc21` [Example 9, (S)-N-(1-(4-(3,3-dimethyl-2-oxoindolin-1-yl)piperidin-1-yl)-1-oxo-4-phenylbutan-2-yl)azetidine-3-carboxamide], at most 10 nM. Still for that read-out and setting: to `CC1(C)C(=O)N(C2CCN(C(=O)[C@H](CCc3ccccc3)NC(=O)C3CCNCC3)CC2)c2ccccc21` [Example 10, (S)-N-(1-(4-(3,3-dimethyl-2-oxoindolin-1-yl)piperidin-1-yl)-1-oxo-4-phenylbutan-2-yl)piperidine-4-carboxamide] belongs at most 10 nM. Still for that read-out and setting: under `CC1(C)C(=O)N(C2CCN(C(=O)[C@H](CCc3ccccc3)NC(=O)CC3(N)CCCC3)CC2)c2ccccc21` [Example 12, (S)-2-(1-aminocyclopentyl)-N-(1-(4-(3,3-dimethyl-2-oxoindolin-1-yl)piperidin-1-yl)-1-oxo-4-phenylbutan-2-yl)acetamide] stands at most 10 nM. Take `CNC(C)(C)CC(=O)N[C@@H](CCc1ccccc1)C(=O)N1CCC(N2C(=O)C(C)(C)c3ccccc32)CC1` [Example 13, (S)-N-(1-(4-(3,3-dimethyl-2-oxoindolin-1-yl)piperidln-1-yl)-1-oxo-4-phenylbutan-2-yl)-3-methyl-3-(methylamino) butanamide]: the EC50 is at most 10 nM. Compound `CC1(C)C(=O)N(C2CCN(C(=O)[C@H](CCc3ccccc3)NC(=O)CCNC3CCCC3)CC2)c2ccccc21` [Example 14, (S)-3-(cyclopentylamino)-N-(1-(4-(3,3-dimethyl-2-oxoindolin-1-yl)piperidin-1-yl)-1-oxo-4-phenylbutan-2-yl)propanamide] yielded an EC50 of at most 10 nM. On the same count and under the same terms, under `COCCN(C)CCC(=O)N[C@@H](CCc1ccccc1)C(=O)N1CCC(N2C(=O)C(C)(C)c3ccccc32)CC1` [Example 15, (S)-N-(1-(4-(3,3-dimethyl-2-oxoindolin-1-yl)piperidin-1-yl)-1-oxo-4-phenylbutan-2-yl)-3-((2-methoxyethyl)(methyl)amino) propanamide] stands at most 10 nM; under `CC1(C)C(=O)N(C2CCN(C(=O)[C@H](CCc3ccccc3)NC(=O)CN3CCCC3)CC2)c2ccccc21` [Example 17, (S)—N-(1-(4-(3,3-dimethyl-2-oxoindolin-1-yl)piperidin-1-yl)-1-oxo-4-phenylbutan-2-yl)-2-(pyrrolidin-1-yl)acetamide], at most 10 nM. Compound `CN1CCC[C@@H](C(=O)N[C@@H](CCc2ccccc2)C(=O)N2CCC(N3C(=O)C(C)(C)c4ccccc43)CC2)C1` [Example 20, (R)—N—((S)-1-(4-(3,3-dimethyl-2-oxoindolin-1-yl)piperidin-1-yl)-1-oxo-4-phenylbutan-2-yl)-1-methylpiperidine-3-carboxamide] yielded an EC50 of at most 10 nM. Same read-out and setting: to `CN[C@@H]1CC[C@H](C(=O)N[C@@H](Cc2ccc(Cl)cc2)C(=O)N2CCC(N3C(=O)C(C)(C)c4ccccc43)CC2)C1` [Example 21, (1S,3R)—N—((S)-3-(4-chlorophenyl)-1-(4-(3,3-dimethyl-2-oxoindolin-1-yl)piperidin-1-yl)-1-oxopropan-2-yl)-3-(methylamino)cyclopentanecarboxamide] belongs at most 10 nM; to `CN[C@@H]1CC[C@H](C(=O)N[C@@H](Cc2ccccc2C(F)(F)F)C(=O)N2CCC(N3C(=O)C(C)(C)c4ccccc43)CC2)C1` [Example 22, (1S,3R)-N-((S)-1-(4-(3,3-dimethyl-2-oxoindolin-1-yl)piperidin-1-yl)-1-oxo-3-(2-(trifluoromethyl)phenyl)propan-2-yl)-3-(methylamino)cyclopentane-carboxamide], at most 10 nM; to `CN[C@@H]1CC[C@H](C(=O)N[C@@H](CC2CCCCC2)C(=O)N2CCC(N3C(=O)C(C)(C)c4ccccc43)CC2)C1` [Example 23, (1S,3R)-N-((S)-3-cyclohexyl-1-(4-(3,3-dimethyl-2-oxoindolin-1-yl)piperidin-1-yl)-1-oxopropan-2-yl)-3-(methyl-amino)cyclopentanecarboxamide], at most 10 nM.

Regarding `CN[C@@H]1CC[C@H](C(=O)N[C@@H](Cc2cccc3ccccc23)C(=O)N2CCC(N3C(=O)C(C)(C)c4ccccc43)CC2)C1` [Example 24, (1S,3R)-N-((S)-1-(4-(3,3-dimethyl-2-oxoindolin-1-yl)piperidin-1-yl)-3-(naphthalen-1-yl)-1-oxopropan-2-yl)-3-(methylamino)cyclopentane-carboxamide], the EC50 is at most 10 nM. Still for that read-out and setting: under `CN[C@@H]1CC[C@H](C(=O)N[C@@H](Cc2ccccc2Cl)C(=O)N2CCC(N3C(=O)C(C)(C)c4ccccc43)CC2)C1` [Example 25, (1S,3R)-N-((S)-3-(2-chlorophenyl)-1-(4-(3,3-dimethyl-2-oxoindolin-1-yl)piperidin-1-yl)-1-oxopropan-2-yl)-3-(methylamino)cyclopentane-carboxamide] stands at most 10 nM; under `CN[C@@H]1CC[C@H](C(=O)N[C@@H](Cc2ccccc2C)C(=O)N2CCC(N3C(=O)C(C)(C)c4ccccc43)CC2)C1` [Example 26, (1S,3R)-N-((S)-1-(4-(3,3-dimethyl-2-oxoindolin-1-yl)piperidin-1-yl)-1-oxo-3-o-tolylpropan-2-yl)-3-(methyl-amino)cyclopentanecarboxamide], at most 10 nM. Same read-out and setting: to `CN[C@@H]1CC[C@H](C(=O)N[C@@H](Cc2ccc(F)cc2)C(=O)N2CCC(N3C(=O)C(C)(C)c4ccccc43)CC2)C1` [Example 27, (1S,3R)-N-((S)-1-(4-(3,3-dimethyl-2-oxoindolin-1-yl)piperidin-1-yl)-3-(4-fluorophenyl)-1-oxopropan-2-yl)-3-(methylamino)cyclopentane-carboxamide] belongs at most 10 nM.

The same test, now with this note: ED50 (nM), Table 15; functional activity toward GPR38 (motilin receptor), (S) versus (R) amino acid linker.
For the compound `CC1(C)C(=O)N(C2CCN(C(=O)[C@H](CCc3ccccc3)NC(=O)[C@@H]3CCCNC3)CC2)c2ccccc21` [Example 1, (R)—N—((S)-1-(4-(3,3-dimethyl-2-oxoindolin-1-yl)piperidin-1-yl)-1-oxo-4-phenylbutan-2-yl)piperidine-3-carboxamide], the EC50 was determined as 0.24 nM.
